Measured values from patent US9796711B2, “Substituted pyrazolo[3,4-b]pyridin-6-carboxylic acids and method of use” (AbbVie S.àr.l., priority 2015, dated 2017).

Target: T1, ΔF508-CFTR (Homo sapiens, UniProt P13569, DEL508-508)
T1 construct: host or cells: CFBE41o-, doxycycline-inducible
Test: CFTR cell surface levels using HRP-tagged ΔF508-CFTR expressing CFBE cells, in the presence of a co-corrector
Assay type: cell-based
Conditions: HRP-tagged ΔF508-CFTR expressing CFBE cells, in the presence of 3 μM co-corrector; for EC50: read-out: EC50
Description: Measuring CFTR Cell Surface Levels Using HRP-Tagged AF508-CFTR Expressing CFBE Cells
The HRP-tagged AF508-CFTR cell assay measures the expression of CFTR-ΔF508 at the plasma membrane. CFTR-ΔF508 has a folding defect leading to absence of protein at the plasma membrane. This assay is used to evaluate the capacity of compounds to increase the expression of CFTR-ΔF508 at the plasma membrane. The CFTR-ΔF508 is tagged with HRP (horse radish peroxidase enzyme) within the ECL4 (Extracellular loop 4) of CFTR (Phuan, P.-W. et al. Synergy-based small-molecule screen using a human lung epithelial cell line yields AF508-CFTR correctors that augment VX-809 maximal efficacy. Mol. Pharmacol. 86, 42-51 (2014)). When HRP-tagged AF508-CFTR is present at the plasma membrane, the HRP enzyme activity can be measured. The amount of CFTR-ΔF508 that can be rescued to the plasma membrane is correlated with the amount of functional enzyme that can be measured.
There are several ways to measure the capacity of compounds to rescue CFTR-ΔF508 to the plasma membrane; either compounds are evaluated on their own and the impact on plasma membrane levels is measured or compounds are evaluated in combination with a co-corrector, i.e. a compound that rescues CFTR-ΔF508 to the plasma membrane but rescue can be enhanced by addition of compounds due to a complementary mode of action.
Activity of Compounds in Combination with Co-Corrector:
For this purpose doxycycline-inducible AF508-CFTR-HRP expressing CFBE4lo-cells (obtained from Gergely Lukacs, McGill University) were maintained in MEM (Minimum Essential Medium, Gibco; 31095) supplemented with 10% fetal bovine serum (Hyclone; SV30160.03) under puromycin (3 μg/mL) and G418 selection (0.2 mg/mL). For compound testing, cells were seeded at 4000 cells/well in white 384-well plates (Greiner; 781080) in 50 μL of medium containing 0.5 μg/mL doxycycline and incubated for 68 hours at 37° C., 5% CO2. On day four, 10 μL of test compounds diluted in PBS (phosphate buffered saline) were added to the plates at a final DMSO concentration of 0.1%. In order to measure compound synergy with a co-corrector, 3 μM co-corrector (3-[(2R,4R)-4-({[1-(2,2-difluoro-1,3-benzodioxol-5-yl)cyclopropyl]carbonyl}amino)-7-methoxy-3,4-dihydro-2H-chromen-2-yl]benzoic acid) was added along with test compounds. All compound plates contained negative controls (DMSO) and positive controls (3 μM co-corrector). Cell plates were incubated at 33° C., 5% CO2 for 20 hours. On day five, the cells were washed five times with phosphate-buffered saline, and HRP activity was assayed by the addition of 50 μL/well of HRP substrate (SuperSignal™ West Pico Chemiluminescent Substrate, Thermo Scientific; 34080). After incubation for 15 minutes in the dark, the chemiluminescence was measured using a plate reader (EnVision®, Perkin Elmer). Raw data were normalized to percentage activity values using the equation: 100×(Sample−Negative control)/(Positive control−Negative Control).

T1 sequence (P13569 with tags, fused parts or gaps DEL508-508): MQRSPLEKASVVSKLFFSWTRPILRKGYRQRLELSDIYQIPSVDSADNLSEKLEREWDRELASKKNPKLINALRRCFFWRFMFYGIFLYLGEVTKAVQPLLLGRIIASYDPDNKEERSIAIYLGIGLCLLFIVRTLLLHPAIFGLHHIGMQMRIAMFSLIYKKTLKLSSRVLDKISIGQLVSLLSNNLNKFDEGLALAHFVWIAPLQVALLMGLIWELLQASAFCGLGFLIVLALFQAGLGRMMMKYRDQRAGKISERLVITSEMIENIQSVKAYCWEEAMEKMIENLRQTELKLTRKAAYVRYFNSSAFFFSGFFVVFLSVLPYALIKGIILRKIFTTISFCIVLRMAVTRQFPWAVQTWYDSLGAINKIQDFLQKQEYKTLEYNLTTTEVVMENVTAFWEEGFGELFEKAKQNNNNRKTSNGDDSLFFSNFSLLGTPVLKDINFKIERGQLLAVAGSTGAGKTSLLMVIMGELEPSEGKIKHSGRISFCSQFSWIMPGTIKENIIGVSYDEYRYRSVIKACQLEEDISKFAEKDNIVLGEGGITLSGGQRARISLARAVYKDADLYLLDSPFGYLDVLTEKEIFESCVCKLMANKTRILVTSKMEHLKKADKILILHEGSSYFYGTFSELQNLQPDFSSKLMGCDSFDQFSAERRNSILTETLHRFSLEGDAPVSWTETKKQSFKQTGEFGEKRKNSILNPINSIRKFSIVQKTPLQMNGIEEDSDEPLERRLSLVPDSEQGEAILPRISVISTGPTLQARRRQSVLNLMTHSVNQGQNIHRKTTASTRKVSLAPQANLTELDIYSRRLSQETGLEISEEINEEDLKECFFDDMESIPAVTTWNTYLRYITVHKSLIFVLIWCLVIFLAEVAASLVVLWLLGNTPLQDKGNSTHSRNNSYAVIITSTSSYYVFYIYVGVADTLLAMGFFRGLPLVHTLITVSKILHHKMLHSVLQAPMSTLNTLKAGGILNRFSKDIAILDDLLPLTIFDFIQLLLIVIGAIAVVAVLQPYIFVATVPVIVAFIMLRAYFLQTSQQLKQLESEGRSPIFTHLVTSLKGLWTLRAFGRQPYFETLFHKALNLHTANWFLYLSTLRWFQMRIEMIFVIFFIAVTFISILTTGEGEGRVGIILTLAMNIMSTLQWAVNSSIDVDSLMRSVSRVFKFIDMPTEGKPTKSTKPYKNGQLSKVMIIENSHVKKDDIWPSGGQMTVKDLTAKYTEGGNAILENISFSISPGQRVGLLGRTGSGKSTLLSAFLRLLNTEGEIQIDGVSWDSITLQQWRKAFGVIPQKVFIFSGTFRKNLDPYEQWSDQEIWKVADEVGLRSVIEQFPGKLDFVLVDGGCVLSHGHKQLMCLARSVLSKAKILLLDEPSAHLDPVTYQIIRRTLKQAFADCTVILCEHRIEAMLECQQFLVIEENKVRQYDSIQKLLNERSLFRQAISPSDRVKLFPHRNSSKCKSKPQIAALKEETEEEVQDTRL

## Cc1nn(-c2ccccc2)c2nc(C(=O)O)cc(-c3ccc(N4CCOCC4)cc3)c12 [compound 1, 3-methyl-4-[4-(morpholin-4-yl)phenyl]-1-phenyl-1H-pyrazolo[3,4-b]pyridine-6-carboxylic acid]
  % Activation: 354.48%
  EC50: 1040 nM

## Cc1nn(C2CCCCC2)c2nc(C(=O)O)cc(-c3ccc(N4CCOCC4)cc3)c12 [compound 17, 1-cyclohexyl-3-methyl-4-[4-(morpholin-4-yl)phenyl]-1H-pyrazolo[3,4-b]pyridine-6-carboxylic acid]
  % Activation: 272.5%
  EC50: 1140 nM

## CC(C)(C)c1nn(-c2ccccc2)c2nc(C(=O)O)cc(-c3ccc(N4CCOCC4)cc3)c12 [compound 40, 3-tert-butyl-4-[4-(morpholin-4-yl)phenyl]-1-phenyl-1H-pyrazolo[3,4-b]pyridine-6-carboxylic acid]
  % Activation: 340.8%
  EC50: 393 nM

## Cc1nn(-c2ccccc2)c2nc(C(=O)O)cc(-c3ccc(N4CCOCC4)nc3)c12 [compound 50, 3-methyl-4-[6-(morpholin-4-yl)pyridin-3-yl]-1-phenyl-1H-pyrazolo[3,4-b]pyridine-6-carboxylic acid]
  % Activation: 313.2%
  EC50: 2120 nM

## Cc1nn(-c2ccccc2)c2nc(C(=O)O)cc(-c3ccc(N4CCC(C#N)CC4)cc3)c12 [compound 109, 4-[4-(4-cyanopiperidin-1-yl)phenyl]-3-methyl-1-phenyl-1H-pyrazolo[3,4-b]pyridine-6-carboxylic acid]
  % Activation: 398.15%
  EC50: 752 nM

## Cc1nn(-c2ccccc2)c2nc(C(=O)O)cc(-c3ccc(N(C)C4CCOCC4)cc3)c12 [compound 110, 3-methyl-4-{4-[methyl(oxan-4-yl)amino]phenyl}-1-phenyl-1H-pyrazolo[3,4-b]pyridine-6-carboxylic acid]
  % Activation: 397.65%
  EC50: 536 nM

## CC1(c2nn(-c3ccccc3)c3nc(C(=O)O)cc(-c4ccc(N5CCOCC5)cc4)c23)COC1 [compound 113, 3-(3-methyloxetan-3-yl)-4-[4-(morpholin-4-yl)phenyl]-1-phenyl-1H-pyrazolo[3,4-b]pyridine-6-carboxylic acid]
  % Activation: 277%
  EC50: 1170 nM

## COCc1nn(-c2ccccc2)c2nc(C(=O)O)cc(-c3ccc(N4CCOCC4)cc3)c12 [compound 122, 3-(methoxymethyl)-4-[4-(morpholin-4-yl)phenyl]-1-phenyl-1H-pyrazolo[3,4-b]pyridine-6-carboxylic acid]
  % Activation: 311.75%
  EC50: 1770 nM

## Cc1nn(-c2ccccc2)c2nc(C(=O)O)cc(-c3ccc(N4CCC(O)CC4)cc3)c12 [compound 144, 4-[4-(4-hydroxypiperidin-1-yl)phenyl]-3-methyl-1-phenyl-1H-pyrazolo[3,4-b]pyridine-6-carboxylic acid]
  % Activation: 338.4%
  EC50: 2620 nM

## CC(C)c1nn(C2CCCCC2)c2nc(C(=O)O)cc(N3CCC(C#N)CC3)c12 [compound 263, 4-(4-cyanopiperidin-1-yl)-1-cyclohexyl-3-(propan-2-yl)-1H-pyrazolo[3,4-b]pyridine-6-carboxylic acid]
  % Activation: 334.25%
  EC50: 1130 nM

## CC1(c2nn(-c3ccccc3)c3nc(C(=O)O)cc(-c4ccc(N5CCOCC5)cc4)c23)CCC1 [compound 332, 3-(1-methylcyclobutyl)-4-[4-(morpholin-4-yl)phenyl]-1-phenyl-1H-pyrazolo[3,4-b]pyridine-6-carboxylic acid]
  % Activation: 346.12%
  EC50: 917 nM

## O=C(O)c1cc(N2C[C@@H](O)[C@H](O)C2)c2c(C3CCC3)nn(-c3ccccc3)c2n1 [compound 445, 3-cyclobutyl-4-[(3R,4R)-3,4-dihydroxypyrrolidin-1-yl]-1-phenyl-1H-pyrazolo[3,4-b]pyridine-6-carboxylic acid]
  % Activation: 127.85%
  EC50: > 10000 nM

## CN(CC1CCOCC1)c1cc(C(=O)O)nc2c1c(C1CCC1)nn2-c1ccccc1 [compound 554, 3-cyclobutyl-4-{methyl[(oxan-4-yl)methyl]amino}-1-phenyl-1H-pyrazolo[3,4-b]pyridine-6-carboxylic acid]
  % Activation: 365.83%
  EC50: 1720 nM

## CN(C)C(=O)CN1CCN(c2cc(C(=O)O)nc3c2c(C2CCC2)nn3-c2ccccc2)CC1 [compound 559, 3-cyclobutyl-4-{4-[2-(dimethylamino)-2-oxoethyl]piperazin-1-yl}-1-phenyl-1H-pyrazolo[3,4-b]pyridine-6-carboxylic acid]
  % Activation: 352.47%
  EC50: 2050 nM

## CN1CCN(c2cc(C(=O)O)nc3c2c(C2CCC2)nn3-c2ccccc2)CC1 [compound 563, 3-cyclobutyl-4-(4-methylpiperazin-1-yl)-1-phenyl-1H-pyrazolo[3,4-b]pyridine-6-carboxylic acid]
  % Activation: 272.97%
  EC50: 2230 nM

## CC(C)CN1CCC(CN(C)c2cc(C(=O)O)nc3c2c(C2CCC2)nn3-c2ccccc2)CC1 [compound 564, 3-cyclobutyl-4-(methyl{[1-(2-methylpropyl)piperidin-4-yl]methyl}amino)-1-phenyl-1H-pyrazolo[3,4-b]pyridine-6-carboxylic acid]
  % Activation: 369.1%
  EC50: 2450 nM

## CN(CCN1CCOCC1)c1cc(C(=O)O)nc2c1c(C1CCC1)nn2-c1ccccc1 [compound 565, 3-cyclobutyl-4-{methyl[2-(morpholin-4-yl)ethyl]amino}-1-phenyl-1H-pyrazolo[3,4-b]pyridine-6-carboxylic acid]
  % Activation: 319.8%
  EC50: 1930 nM

## CN(C)[C@@H]1CCN(c2cc(C(=O)O)nc3c2c(C2CCC2)nn3-c2ccccc2)C1 [compound 567, 3-cyclobutyl-4-[(3R)-3-(dimethylamino)pyrrolidin-1-yl]-1-phenyl-1H-pyrazolo[3,4-b]pyridine-6-carboxylic acid]
  % Activation: 302.8%
  EC50: 2110 nM

## CN(C)[C@H]1CCN(c2cc(C(=O)O)nc3c2c(C2CCC2)nn3-c2ccccc2)C1 [compound 568, 3-cyclobutyl-4-[(3S)-3-(dimethylamino)pyrrolidin-1-yl]-1-phenyl-1H-pyrazolo[3,4-b]pyridine-6-carboxylic acid]
  % Activation: 279.9%
  EC50: 2480 nM

## CNC(=O)CN1CCN(c2cc(C(=O)O)nc3c2c(C2CCC2)nn3-c2ccccc2)CC1 [compound 569, 3-cyclobutyl-4-{4-[2-(methylamino)-2-oxoethyl]piperazin-1-yl}-1-phenyl-1H-pyrazolo[3,4-b]pyridine-6-carboxylic acid]
  % Activation: 259.37%
  EC50: 3060 nM

## O=C(O)c1cc(N2CCN(C(=O)CN3CCOCC3)CC2)c2c(C3CCC3)nn(-c3ccccc3)c2n1 [compound 570, 3-cyclobutyl-4-{4-[(morpholin-4-yl)acetyl]piperazin-1-yl}-1-phenyl-1H-pyrazolo[3,4-b]pyridine-6-carboxylic acid]
  % Activation: 254%
  EC50: 3330 nM

## O=C(O)c1cc(N2CCCN(CC3CCCO3)CC2)c2c(C3CCC3)nn(-c3ccccc3)c2n1 (centres unmarked) [compound 572, 3-cyclobutyl-4-{4-[(oxolan-2-yl)methyl]-1,4-diazepan-1-yl}-1-phenyl-1H-pyrazolo[3,4-b]pyridine-6-carboxylic acid]
  % Activation: 330.8%
  EC50: 1190 nM

## COc1cc(C(=O)O)nc2c1c(C1CCC1)nn2-c1ccccc1 [compound 584, 3-cyclobutyl-4-methoxy-1-phenyl-1H-pyrazolo[3,4-b]pyridine-6-carboxylic acid]
  % Activation: 202.2%
  EC50: 2880 nM

## O=C(O)c1cc(OC2CCC2)c2c(C3CCC3)nn(-c3ccccc3)c2n1 [compound 585, 3-cyclobutyl-4-(cyclobutyloxy)-1-phenyl-1H-pyrazolo[3,4-b]pyridine-6-carboxylic acid]
  % Activation: 245.3%
  EC50: 2490 nM

## COCCOCCOc1cc(C(=O)O)nc2c1c(C1CCC1)nn2-c1ccccc1 [compound 586, 3-cyclobutyl-4-[2-(2-methoxyethoxy)ethoxy]-1-phenyl-1H-pyrazolo[3,4-b]pyridine-6-carboxylic acid]
  % Activation: 322.2%
  EC50: 2000 nM
